Earlier results in US20220184102A1, “COMPOSITIONS AND METHODS FOR TREATING AGE-RELATED MACULAR DEGENERATION” (priority 2019, published 2022).

Columns and labels:
[1] = system: neovascular exudative AMD; conditions: oral minocycline combined with reduced-fluence PDT, intravitreal ranibizumab, intravitreal dexamethasone
intestinal flora = conditions: 20 mg twice-daily for 9 months
[2] = system: early seropositive rheumatoid arthritis; conditions: 20 mg twice-daily (subantimicrobial dose) plus MTX
chronic periodontitis = conditions: 20 mg twice daily, two years

Compound | levels in the brain relative to doxycycline at the same dose [fold] | safety concerns [1] | antibacterial effect on intestinal flora (intestinal flora) | number of adverse events versus placebo group [2] | microbiological resistance (chronic periodontitis) | safety issues (chronic periodontitis) | tolerability (adult periodontitis; 10 mg daily, 20 mg daily or 20 mg twice daily, 9-12 months) | resistance to doxycycline (adult periodontitis; during the course of the study) | liver or kidney function tests versus control group (adult periodontitis; treatment groups)
CN(C)c1ccc(O)c2c1C[C@H]1C[C@H]3[C@H](N(C)C)C(O)=C(C(N)=O)C(=O)[C@@]3(O)C(O)=C1C2=O [minocycline] | ~3 | No safety concerns were identified |  |  |  |  |  |  | 
C[C@H]1c2cccc(O)c2C(=O)C2=C(O)[C@]3(O)C(=O)C(C(N)=O)=C(O)[C@@H](N(C)C)[C@@H]3[C@@H](O)[C@@H]21 [doxycycline] |  |  | no antibacterial effect | equivalent | no sign of microbiological resistance | no significant safety issues | well-tolerated | no resistance developed | No clinically significant differences
